Assay results as given in patent US20200016134A1, “COMPOSITIONS AND METHODS FOR TREATING SUBSTANCE ABUSE DISORDERS” (EMBERA NEUROTHERAPEUTICS, INC., priority 2016, published 2020).

Legend:
adult male Wistar rats [1] = test: Intravenous cocaine self-administration under a multiple, alternating schedule of food reinforcement and cocaine self-administration; type: in vivo, rat; settings: for cocaine self-administration and reinstatement of extinguished cocaine seeking: pretreatment with the single drug, summary of the studies
Protocol: Adult male Wistar rats were trained under a multiple, alternating schedule of cocaine and food self-administration. This schedule consisted of alternating periods of cocaine access and food reinforcement. In some instances, as described further below, three doses of cocaine (0.125, 0.25, or 0.50 mg/kg/infusion) were tested. Rats were also periodically trained with saline substitution (cocaine extinction) and food extinction during the same session.
More specifically, adult male Wistar rats were implanted with chronic jugular catheters. Following recovery from surgery, the rats were trained to respond under a multiple, alternating schedule of food reinforcement and cocaine self-administration. Food-maintained responding was used to control for the non-specific motor effects of the various treatments. During the food component of the schedule, the stimulus light located above the food response lever was illuminated to indicate the availability of food reinforcement. […] A 25-second timeout followed the delivery of each food pellet. During this timeout, the stimulus light was darkened and responses on the food lever were counted but had no scheduled consequences. Responding on the other (cocaine) lever during the food component also had no scheduled consequences. […] Following 15 minutes of access to food, all stimulus lights in the chamber were darkened for a 1-minute timeout. Following the timeout, the stimulus light above the cocaine response lever was illuminated to indicate the availability of cocaine (0.125, 0.25, or 0.5 mg/kg/infusion). […] A 20-second timeout period followed each infusion. […] After 15 minutes of access to cocaine and a 1-minute timeout, the rats were again allowed 15 minutes access to the food component of the schedule. Access to food and cocaine alternated in this manner every 15 minutes during the two hour behavioral sessions so that each rat was exposed to food and cocaine for four 15-minute periods each. Each behavioral session began with 15 minutes access to either food or cocaine, and this alternated daily. Stable baselines of responding were established when the total number of cocaine and food presentations, as well as the number of presentations during each of the four exposures each session, varied less than 10% for three consecutive sessions. At least three different doses of cocaine (e.g., 0.125, 0.25, and 0.5 mg/kg/infusion) were tested. Rats were first trained to self-administer 0.25 mg/kg/infusion, which was the standard dose of cocaine used. When responding stabilized, the dose was changed to 0.125 or 0.5 mg/kg/infusion as appropriate.
Once stable baselines of responding were obtained, dose-response curves for the various compounds were individually generated for each rat. Rats were treated with each dose at least twice with a minimum of two days of baseline cocaine self-administration interspersed between each test. Each group of rats was tested with only two of the test compounds to minimize potential carryover effects.

rats = settings: Goeders et al., cited from earlier work
adult male Wistar rats [2] = test: Cue-induced reinstatement of extinguished cocaine seeking (model of relapse); type: in vivo, rat; settings: FIG. 11; chronic metyrapone 50 mg/kg ip, once per day for 14 days
Protocol: Training to self-administer cocaine: In one model, rats were exposed to alternating 15-minute periods of access to cocaine self-administration and food reinforcement. Food was used to control for potential nonspecific, ataxis effects of the drugs and combinations. […] In this model, rats are trained to self-administer cocaine and the ability of conditioned cues in the environment to reinstate extinguished responding is assessed and taken as a measure of relapse.
Cue-induced Reinstatement of Extinguished Cocaine Seeking: The experiments described herein were designed to investigate whether or not drug combinations identified as effective in reducing cocaine self-administration would also block the ability of conditioned cues to reinstate extinguished cocaine-seeking behavior. Adult male Wistar rats were implanted with chronic jugular catheters and trained to self-administer cocaine (0.25 mg/kg/infusion) by pressing one of the response levers in the experimental chamber (i.e., the “active” or “cocaine” lever) under a fixed-ratio four (FR4) schedule of reinforcement during daily 2-hour sessions conducted 5 days per week. At the start of each session, both levers were extended into the chamber and the stimulus light above the active lever was illuminated to indicate the availability of cocaine. […] A 20-second timeout period followed each infusion. […]

male Wistar rats = test: Forced Swim Test (FST), animal model of depression
[3] = Phase I single- and multiple-rising dose study: plasma pharmacokinetics; settings: human, in vivo
Protocol: METHODS: This was a single- and multiple-rising dose study. Healthy volunteers who smoke, aged 18-65, received a single AM dose on Day 1, BID dosing on Days 3-9 and a single AM dose on Day 10. Three sequential dose cohorts of 8 subjects (6 drug, 2 placebo) received the following doses of MET and OX, respectively: 270 and 12 mg; 540 and 24 mg; and 720 and 24 mg. Total daily doses were double these amounts on BID dosing days. Primary outcomes were safety and pharmacokinetics of MET, its active metabolite (metyrapol), and OX. Safety measures included vital signs, ECGs an standard safety labs. Cortisol and other HPA axis parameters were monitored closely throughout the study.

[4] = FIG. 3, low, ineffective doses alone: alprazolam 0.2-2 mg/kg ip, ketoconazole 5-75 mg/kg ip
[5] = FIG. 7, high dose alone: metyrapone 25-175 mg/kg ip, alprazolam 1-5 mg/kg ip
[6] = FIG. 7, low, ineffective doses alone: metyrapone 25-50 mg/kg ip, alprazolam 0.5-2 mg/kg ip
[7] = FIG. 9, high dose alone: muscimol 1-4 mg/kg ip, metyrapone 25-175 mg/kg ip
[8] = FIG. 8, high dose alone: muscimol 1-4 mg/kg ip, CP-154,526 10-80 mg/kg ip
[9] = FIG. 8, low, ineffective doses alone: muscimol 0.5-2.0 mg/kg ip, CP-154,526 5-25 mg/kg ip

Compound	cocaine self-administration (number of cocaine infusions) (adult male Wistar rats [1]; [4])	cocaine self-administration (number of cocaine infusions) (adult male Wistar rats [1]; [5])	cocaine self-administration (number of cocaine infusions) (adult male Wistar rats [1]; [6])	cocaine self-administration and reinstatement of extinguished cocaine seeking (adult male Wistar rats [1]; rats)	cocaine self-administration (infusions, percentage of baseline) (adult male Wistar rats [1]; [7])	intravenous cocaine self-administration (rats; pretreatment)	cocaine self-administration (infusions, percentage of baseline) (adult male Wistar rats [1]; [8])	cocaine self-administration (infusions, percentage of baseline) (adult male Wistar rats [1]; [9])	further results
Cc1nnc2n1-c1ccc(Cl)cc1C(c1ccccc1)=NC2 [alprazolam]	did not significantly affect cocaine self-administration	reduced cocaine self-administration	did not significantly affect cocaine self-administration	decrease cocaine self-administration and the reinstatement of extinguished cocaine seeking					responding maintained by food and cocaine (rats; multiple schedule of iv cocaine and food reinforcement, initial testing, 1993): reduced responding maintained by both food and cocaine
CC(C)(C(=O)c1cccnc1)c1cccnc1 [metyrapone]		reduced cocaine self-administration	did not significantly affect cocaine self-administration	decrease cocaine self-administration and the reinstatement of extinguished cocaine seeking	reduced cocaine self-administration	significant dose-related decreases			cocaine seeking (responding on the active lever during reinstatement) (adult male Wistar rats [2]): reduced cocaine seeking to levels seen when only saline was delivered; immobility time (male Wistar rats; chronic administration, single drug, Met50 group (metyrapone 50 mg/kg)): showed a lessening of immobility time; group means of immobility compared with vehicle (tolerance) (male Wistar rats; chronically treated groups that received only Ox or Met): equal to or exceeded the vehicle; cocaine self-administration (number of cocaine infusions) (adult male Wistar rats [1]; FIG. 1A, high dose alone: metyrapone 25-175 mg/kg ip, oxazepam 5-80 mg/kg ip): reduced cocaine self-administration; t1/2, mean [3]: 1.887 h; plasma corticosterone (rats; pretreatment, 1996): significant dose-related decreases
CCCCN(CC)c1nc(C)nc2c1c(C)cn2-c1c(C)cc(C)cc1C [CP-154,526]				decrease cocaine self-administration and the reinstatement of extinguished cocaine seeking			reduced cocaine self-administration	did not significantly affect cocaine self-administration	cocaine self-administration (infusions, percentage of baseline) (adult male Wistar rats [1]; FIG. 6, high dose alone: CP-154,526 10-80 mg/kg ip, oxazepam 5-25 mg/kg ip): reduced cocaine self-administration; cocaine self-administration (infusions, percentage of baseline) (adult male Wistar rats [1]; FIG. 6, low, ineffective doses alone: CP-154,526 5-25 mg/kg ip, oxazepam 5-25 mg/kg ip): did not significantly affect cocaine self-administration
NCc1cc(=O)[nH]o1 [muscimol]					reduced cocaine self-administration		reduced cocaine self-administration	did not significantly affect cocaine self-administration	
CC(=O)N1CCN(c2ccc(OCC3COC(Cn4ccnc4)(c4ccc(Cl)cc4Cl)O3)cc2)CC1 (stereo not drawn) [ketoconazole]	did not significantly affect cocaine self-administration			decrease cocaine self-administration and the reinstatement of extinguished cocaine seeking		reduced cocaine self-administration			cocaine- or food-maintained responding (adult male Wistar rats [1]; ketoconazole 12.5 mg/kg tested alone): no effect; cocaine self-administration (number of cocaine infusions) (adult male Wistar rats [1]; rat, in vivo): did not significantly affect cocaine self-administration; minimally effective dose (reduces cocaine self-administration by at least 50% without affecting food-maintained responding) (adult male Wistar rats [1]; rats): 25 mg/kg
